Measured values published in the supplement of paper PMC11208160.

Assay: recombinant barcode read abundance after kanamycin selection (control-corrected) (log10(CPM+1)); higher = more efficient recombination; sequences stand for … in AGTGCAGAGAAAATCGGCCAGTTTTCTCTGCCTGCAGTCCGCATGCCGT…ATTTATGCAGCGGACTGCCTTTCTCCCAAAGTGATAAACCGGACAGTATCATGGACCGGTTTTCCCGGTAATCCGTATTTGCAAGGTTGGTTTCACT; site = the 11-nt target
How it was run: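 Oligos holding a promoter, target, barcode and the J23119-driven first 104 bases of the bridge RNA were Gibson-cloned into a vector that supplied the other 73 bp plus a T7-inducible recombinase. This library was co-electroporated with a donor plasmid into E. coli. Two replicates went on chloramphenicol/ampicillin LB agar (control) and two on chloramphenicol/ampicillin/kanamycin with 0.1 mM IPTG. Recombination efficiency is read from averaged, control-corrected barcode counts per million at recombinant junctions, reported as log10(CPM+1).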

Row | Sequence | recombinant barcode read abundance (log10)
1 | TGTATTCCTTGGGTTCTAACCTGTTGCCTGG [TGTATTCCTAG_LTGcore_CT_RTGcore_CC] (site TGTATTCCTAG) (LTG core: CT, RTG core: CC) | 0.0432
2 | TGTATTCCTTGGGTTCTAACCTGTTGCCTTT [TGTATTCCTAG_LTGcore_CT_RTGcore_AA] (site TGTATTCCTAG) (LTG core: CT, RTG core: AA) | 0.0134
3 | TGTATTCGCTGGGTTCTAACCTGTTGCCTAG [TGTATTCCTAG_LTGcore_GC_RTGcore_CT] (site TGTATTCCTAG) (LTG core: GC, RTG core: CT) | 0.0931
4 | TGTATTCGGTGGGTTCTAACCTGTTGCCTAG [TGTATTCCTAG_LTGcore_GG_RTGcore_CT] (site TGTATTCCTAG) (LTG core: GG, RTG core: CT) | 0.0184
5 | TGTATTCTATGGGTTCTAACCTGTTGCCTAG [TGTATTCCTAG_LTGcore_TA_RTGcore_CT] (site TGTATTCCTAG) (LTG core: TA, RTG core: CT) | 0.0251
6 | TGTATTCTCTGGGTTCTAACCTGTTGCCTGA [TGTATTCCTAG_LTGcore_TC_RTGcore_TC] (site TGTATTCCTAG) (LTG core: TC, RTG core: TC) | 0.141
7 | TGTATTCTGTGGGTTCTAACCTGTTGCCTAG [TGTATTCCTAG_LTGcore_TG_RTGcore_CT] (site TGTATTCCTAG) (LTG core: TG, RTG core: CT) | 0.0339
8 | TGTATTCTTTGGGTTCTAACCTGTTGCCTAA [TGTATTCCTAG_LTGcore_TT_RTGcore_TT] (site TGTATTCCTAG) (LTG core: TT, RTG core: TT) | 0.0888
9 | TTATAAAAATGGGTTCTAACCTGTTGCCTAG [TTATAAACTAG_LTGcore_AA_RTGcore_CT] (site TTATAAACTAG) (LTG core: AA, RTG core: CT) | 0.0784
10 | TTATAAACATGGGTTCTAACCTGTTGCCTTG [TTATAAACTAG_LTGcore_CA_RTGcore_CA] (site TTATAAACTAG) (LTG core: CA, RTG core: CA) | 0.0537
11 | TTATAAACCTGGGTTCTAACCTGTTGCCTAG [TTATAAACTAG_LTGcore_CC_RTGcore_CT] (site TTATAAACTAG) (LTG core: CC, RTG core: CT) | 0.437
12 | TTATAAACTTGGGTTCTAACCTGTTGCCTCC [TTATAAACTAG_LTGcore_CT_RTGcore_GG] (site TTATAAACTAG) (LTG core: CT, RTG core: GG) | 0.179
13 | TTATAAACTTGGGTTCTAACCTGTTGCCTGA [TTATAAACTAG_LTGcore_CT_RTGcore_TC] (site TTATAAACTAG) (LTG core: CT, RTG core: TC) | 0.137
14 | TTATAAACTTGGGTTCTAACCTGTTGCCTTC [TTATAAACTAG_LTGcore_CT_RTGcore_GA] (site TTATAAACTAG) (LTG core: CT, RTG core: GA) | 0.0607
15 | TTATAAAGCTGGGTTCTAACCTGTTGCCTAG [TTATAAACTAG_LTGcore_GC_RTGcore_CT] (site TTATAAACTAG) (LTG core: GC, RTG core: CT) | 0.0375
16 | TTATAAAGGTGGGTTCTAACCTGTTGCCTAG [TTATAAACTAG_LTGcore_GG_RTGcore_CT] (site TTATAAACTAG) (LTG core: GG, RTG core: CT) | 0.0816
17 | TTATAAATATGGGTTCTAACCTGTTGCCTAG [TTATAAACTAG_LTGcore_TA_RTGcore_CT] (site TTATAAACTAG) (LTG core: TA, RTG core: CT) | 0.124
